Source: patent publication US11925724B2, “Compounds with dual activity” (priority 2015, dated 2024)
One block for each compound: values may come before it. Square brackets hold non-standard residues; d marks the D form. Ends that are not written are not given here. Peptide text beside a SMILES is read from it. Phe(4-F) = N[CH](Cc1ccc(F)cc1)C(=O)O; Dopa = N[CH](Cc1ccc(O)c(O)c1)C(=O)O

How the values were obtained:
[1] = Peptide layer thickness on Ti by XPS; type: physicochemical; conditions: peptide-coated Ti substrate
From the text: Using X-ray Photoelectron Spectrometry (XPS) analysis, the presence of fluorine atoms on the surface and the thickness of the peptide layer were characterized. As expected, in the case of a bare titanium, there was no indication of the presence of fluorine, while in all cases of substrate-coated with peptides, the presence of fluorine signal indicated the deposition of the peptides on the surface (FIG. 3).

[2] = tested on: Escherichia Coli; test: Adherence of Escherichia Coli to bare and peptide coated substrates (live bacteria count after biofilm formation); type: cell-based; conditions: peptide-coated Ti, overnight incubation in bacteria medium, CFU plate counts
Procedure: To assess the bacterial attachment to the surfaces and the anti-fouling activity of the peptides, the adherence of Escherichia Coli to bare and peptide coated substrates was promoted. Following this, the surfaces incubated overnight in the bacteria medium to enable the biofilm formation. After the incubation, the surfaces were slowly rinsed, swabbed the adhered bacteria and seeded them in order to evaluate the number of live bacteria on the substrates. […] Escherichia coli were grown in LB medium for 5.5 hours at 37° C. in loosely capped erlenmeyer flask with agitation (120 rpm). […] Afterward, LB media (2 mL) were added to each well and the plates were incubated at 37° C. overnight. Each surface was rinsed by shaking the surface in sterilized water three times. A sterile swab was then used to pick up the biofilms attached to the surfaces. The swabs were inserted into eppendorf tubes containing 1 mL of sterilized water and vortexed for 1 min. Each sample was decimally diluted and plated out on dried LB agar (10 g LB and 7.5 g agar per 0.5 L TDW) plate (8 drops of 10 ul for each dilution). Plate counts (CFU mL-1) were carried out after incubation over night at 37° C. The data presents 3 experiments with triplicates for each experiment. The data is given as mean values ±standard deviations. Significant differences between group means were analyzed by t-test and confidence levels were set at 95%.

Compound: N=C(N)NCCCC(NC(=O)C(Cc1ccc(F)cc1)NC(=O)C(Cc1ccc(F)cc1)NC(=O)C(N)Cc1ccc(O)c(O)c1)C(=O)NCC(=O)NC(CC(=O)O)C(N)=O (stereo not drawn) [Peptide 1, DOPA-Phe(4F)-Phe(4F)-Arg-Gly-Asp] (H-[Dopa][Phe(4-F)][Phe(4-F)]RGD-NH2; configuration not given here)
thickness of the peptide layer (XPS) [1]: 4.74 nm
reduction of live bacteria on substrate as compared to a bare Ti surface [2]: up to 80%

Compound: N=C(N)NCCCC(NC(=O)C(Cc1ccc(F)cc1)NC(=O)C(CC(=O)O)NC(=O)C(N)Cc1ccc(O)c(O)c1)C(=O)NC(Cc1ccc(F)cc1)C(=O)NCC(N)=O (stereo not drawn) [Peptide 3] (H-[Dopa]D[Phe(4-F)]R[Phe(4-F)]G-NH2; configuration not given here)
reduction of live bacteria on substrate as compared to a bare Ti surface [2]: up to 72%

Compound: Peptide 4: control peptide with the same amino acids in mixed sequence, without the cell adhesion and the anti-fouling elements ([Dopa][Phe(4-F)]DG[Phe(4-F)]R; not fully specified (C-terminus))
reduction of live bacteria on substrate as compared to a bare Ti surface [2]: ≤ 62%

thickness of the peptide layer (XPS) [1]: 4.33 nm
Compound: N=C(N)NCCCC(NC(=O)C(Cc1ccc(O)c(O)c1)NC(=O)C(Cc1ccc(F)cc1)NC(=O)C(N)Cc1ccc(F)cc1)C(=O)NCC(=O)NC(CC(=O)O)C(N)=O (stereo not drawn) [Peptide 2] (H-[Phe(4-F)][Phe(4-F)][Dopa]RGD-NH2; configuration not given here)
reduction of live bacteria on substrate as compared to a bare Ti surface [2]: ≤ 82%
